Tests used:
[1] = molecular target: T1, α-glucosidase (Saccharomyces cerevisiae, UniProt P53341); experiment: In vitro stability study (temperature, pH), inhibition rate against α-glucosidase; type: physicochemical; conditions: water bath 30–100 °C, 20 min
Experimental: (§1) Samples of a certain mass concentration were subjected to a water bath at different temperatures (30, 40, 50, 60, 70, 80, 90, 100 °C) for 20 min and treated under different pH conditions (2.0, 3.0, 4.0, 5.0, 6.0, 7.0, 8.0, 9.0, and 10.0) for 20 min to determine the effect of temperature and pH on the stability of the two enzymes.

[2] = molecular target: T1, α-glucosidase; experiment: α-Glucosidase inhibitory activity assay (pNPG substrate); type: biochemical; conditions: 37 °C
Experimental: The experimental groups were supplemented with different concentrations of porphyrin compounds, followed by the addition of 100 μL of 5 mmol/L pNPG. After thorough mixing, the samples were pre-incubated at 37 °C for 10 min. Subsequently, the reaction was terminated by adding 0.1 mol/L of sodium carbonate (Na2CO3) solution. Following a 3 min reaction period, the absorbance of the solutions at 405 nm was measured using a microplate reader. The inhibition rate (%) was subsequently calculated using Formula (1).
Using the enzyme inhibition rate as the y-axis and the inhibitor concentration as the x-axis, the IC50 value was calculated through linear regression fitting with GraphPad Prism software (5.0).

[3] = molecular target: T2, α-amylase (Sus scrofa, UniProt P00690); experiment: Fluorescence quenching, binding and thermodynamics with α-amylase; conditions: for quenching mechanism of α-amylase fluorescence: Stern–Volmer plots; for ΔH^0 / ΔS^0: Van’t Hoff
T2 sequence (P00690 16-511): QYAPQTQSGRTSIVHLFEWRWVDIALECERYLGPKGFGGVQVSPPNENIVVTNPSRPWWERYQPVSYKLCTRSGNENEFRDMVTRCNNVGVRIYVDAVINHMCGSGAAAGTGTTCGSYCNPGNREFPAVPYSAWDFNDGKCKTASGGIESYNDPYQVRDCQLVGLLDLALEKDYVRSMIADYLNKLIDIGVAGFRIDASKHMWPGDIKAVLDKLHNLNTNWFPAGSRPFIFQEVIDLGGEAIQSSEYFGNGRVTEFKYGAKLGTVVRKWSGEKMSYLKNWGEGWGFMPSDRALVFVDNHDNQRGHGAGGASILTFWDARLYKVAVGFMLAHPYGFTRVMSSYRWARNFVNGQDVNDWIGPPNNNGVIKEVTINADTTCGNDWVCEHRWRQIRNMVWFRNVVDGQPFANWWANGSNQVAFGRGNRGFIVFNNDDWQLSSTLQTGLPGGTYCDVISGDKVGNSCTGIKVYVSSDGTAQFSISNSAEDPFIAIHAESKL
From the text: In the α-amylase experiment, a series of porphyrins and amylase (200 U/L) were mixed in a volume ratio of 1:1.
The Stern–Volmer equation [35] was adopted to determine the quenching mechanisms between six porphyrin compounds and both enzymes in the experimental group, with Formula (6):(6) F0/F=1+Ksv[Q]=1+Kqτ0[Q]
The Stern–Volmer equation was adapted based on experimental data to more accurately characterize the quenching behavior [36], with Formula (7):(7) F0/F=e^Ksv[Q]=e^Kqτ0[Q]
In the formula, the fluorescence quenching ratio was calculated as F0/F, where F0 corresponds to the emission intensity of pure α-amylase solution (control) and F denotes the intensity measured after the incremental addition of porphyrin ligands. KSV and Kq denote the Stern–Volmer quenching constant and the bimolecular quenching rate constant, respectively, τ0 (10^−8 s) is the average fluorescence lifetime of the fluorophore in the absence of quencher, and [Q] indicates the concentration of porphyrin compounds.
Due to the presence of an internal filtration effect, a decrease in the fluorescence intensity of the system may occur. Therefore, all fluorescence data were corrected using Formula (8) to eliminate the internal filtration effect.(8) Fcor=Fobse^(Aex+Aem)/2
The evaluation of the interaction forces between porphyrin compounds and the two enzymes can be achieved by calculating thermodynamic parameters. When both ΔH^0 and ΔS^0 are positive, the predominant interaction force is hydrophobic. When both ΔH^0 and ΔS^0 are negative, the main forces are hydrogen bonding and van der Waals forces. When ΔH^0 < 0 and ΔS^0 > 0, the primary interaction is electrostatic attraction.
The thermodynamic parameters were calculated using Formulas (9) and (10), and then the Van’t Hoff plot for the interactions between the porphyrin compounds and the two enzymes was generated by plotting lnKa on the Y-axis versus 1/T on the X-axis.(9) lnKa=−ΔH^0/RT+ΔS^0/R (10) ΔG^0=ΔH^0−TΔS^0=−RTlnKa

[4] = molecular target: T2, α-amylase; experiment: In vitro stability study (temperature, pH), inhibition rate against α-amylase; type: physicochemical; conditions: water bath 30–100 °C, 20 min
Experimental: as §1

[5] = system: HepG2 cells; experiment: MTT cytotoxicity assay; type: cell-based, human; conditions: 24 h
Experimental: The cytotoxicity of six porphyrin compounds against human hepatocellular carcinoma HepG2 cells was evaluated using the MTT assay. HepG2 cells were seeded into 96-well plates at a density of 5000 cells per well and cultured for 24 h at 37 °C in a 5% CO2 incubator. Then, 100 µL of sample solutions at various concentrations (50, 100, and 200 µg/mL) was added to the experimental wells, with blank control wells and solvent control wells also included. The cells were further incubated for 24 h. After incubation, 10 µL of MTT solution (5 mg/mL) was added to each well, and the plates were incubated for another 4 h. Subsequently, 100 µL of Formazan solubilization solution was added to each well, followed by gentle mixing. The plates were returned to the incubator and maintained until complete dissolution of Formazan crystals was observed under a microscope. The absorbance at 570 nm was measured using a microplate reader (Meigu Molecular Instrument Company, Shanghai, China), and the survival rate of HepG2 cells was calculated.(12) Cell viability=As-Ab/Ac-Ab×100%
In the formula, As represents the absorbance of the sample well, Ac denotes the absorbance of the blank control well (without the drug), and Ab refers to the absorbance of the solvent control well (devoid of both cells and the drug).

T1 sequence (P53341 whole entry): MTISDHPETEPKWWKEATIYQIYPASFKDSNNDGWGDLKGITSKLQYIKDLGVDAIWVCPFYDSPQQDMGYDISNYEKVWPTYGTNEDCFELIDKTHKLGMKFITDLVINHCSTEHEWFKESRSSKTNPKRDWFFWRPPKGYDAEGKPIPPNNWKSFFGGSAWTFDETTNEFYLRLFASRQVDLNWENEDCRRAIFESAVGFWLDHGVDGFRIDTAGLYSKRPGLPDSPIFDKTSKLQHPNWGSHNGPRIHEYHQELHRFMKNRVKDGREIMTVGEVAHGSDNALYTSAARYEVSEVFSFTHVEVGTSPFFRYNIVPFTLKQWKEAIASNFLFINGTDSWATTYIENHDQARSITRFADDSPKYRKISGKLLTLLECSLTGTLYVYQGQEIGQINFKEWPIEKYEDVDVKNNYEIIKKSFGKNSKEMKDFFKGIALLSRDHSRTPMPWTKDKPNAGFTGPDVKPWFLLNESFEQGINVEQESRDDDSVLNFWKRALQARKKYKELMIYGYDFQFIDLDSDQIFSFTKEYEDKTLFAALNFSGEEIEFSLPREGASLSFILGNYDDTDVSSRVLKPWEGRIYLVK

Row | Compound | thermal stability: inhibition rate against α-glucosidase [1] | IC50 α-GLU [2] [µg/mL] | quenching mechanism of α-amylase fluorescence ([3]; 298–310 K) | Ka (binding constant) ([3]; T 298 K) | Kq ([3]; T 298 K) | Ksv ([3]; T 298 K) | n (number of binding sites) ([3]; T 298 K) | ΔG^0 ([3]; T 298 K) [kcal/mol] | Ka (binding constant) ([3]; T 304 K) | Kq ([3]; T 304 K) | Ksv ([3]; T 304 K) | n (number of binding sites) ([3]; T 304 K) | ΔG^0 ([3]; T 304 K) [kcal/mol] | Ka (binding constant) ([3]; T 310 K) | Kq ([3]; T 310 K) | Ksv ([3]; T 310 K) | n (number of binding sites) ([3]; T 310 K) | ΔG^0 ([3]; T 310 K) [kcal/mol] | ΔH^0 ([3]; 298–310 K) [kcal/mol] | ΔS^0 ([3]; 298–310 K) [J/mol/k] | also measured
1 | O=C(O)c1ccc(-c2c3nc(c(-c4ccc(C(=O)O)cc4)c4ccc([nH]4)c(-c4ccc(C(=O)O)cc4)c4nc(c(-c5ccc(C(=O)O)cc5)c5ccc2[nH]5)C=C4)C=C3)cc1.[Cu+2] [Cu–TCPP, copper (II) meso-tetra (4-carboxyphenyl)porphyrin] | remained relatively stable | 25.33 ± 0.55 | pure static quenching | 0.20 ± 0.01 ×10^5 L/mol | 4.37 ± 0.07 ×10^12 L/mol/s | 4.37 ± 0.07 ×10^4 L/mol | 0.93 | -5.868 ± 0.012 | 0.10 ± 0.01 ×10^5 L/mol | 4.33 ± 0.03 ×10^12 L/mol/s | 4.33 ± 0.03 ×10^4 L/mol | 0.84 | -5.566 ± 0.0072 | 0.06 ± 0.01 ×10^5 L/mol | 4.32 ± 0.02 ×10^12 L/mol/s | 4.32 ± 0.02 ×10^4 L/mol | 0.78 | -5.337 ± 0.012 | -19.04 ± 0.017 | −185.16 ± 0.05 | Ka ([3]; 298–310 K): 10^3–10^4 L/mol; thermal stability: inhibition rate against α-amylase [4]: small fluctuations; cell viability (survival rate) ([5]; HepG2, 200 μg/mL): 43.13 ± 5.53%; cell viability ([5]; HepG2, 50–100 μg/mL): above 80%
2 | O=C(O)c1ccc(-c2c3nc(c(-c4ccc(C(=O)O)cc4)c4ccc([nH]4)c(-c4ccc(C(=O)O)cc4)c4nc(c(-c5ccc(C(=O)O)cc5)c5ccc2[nH]5)C=C4)C=C3)cc1.[Ni+2] [Ni–TCPP, nickel (II) meso-tetra (4-carboxyphenyl) porphine] | remained relatively stable | 6.58 ± 0.21 | pure static quenching | 99.31 ± 0.12 ×10^5 L/mol | 9.78 ± 0.03 ×10^12 L/mol/s | 9.78 ± 0.03 ×10^4 L/mol | 1.44 | -9.541 ± 0.019 | 5.75 ± 0.04 ×10^5 L/mol | 8.47 ± 0.07 ×10^12 L/mol/s | 8.47 ± 0.07 ×10^4 L/mol | 1.19 | -8.011 ± 0.014 | 0.61 ± 0.02 ×10^5 L/mol | 7.11 ± 0.05 ×10^12 L/mol/s | 7.11 ± 0.05 ×10^4 L/mol | 0.99 | -6.785 ± 0.017 | -78.002 ± 0.043 | −961.90 ± 0.08 | thermal stability: inhibition rate against α-amylase [4]: small fluctuations; cell viability ([5]; HepG2, 50–200 μg/mL): above 88%

Source: publication PMC12467033, “Exploring the Inhibitory Potential of Six Porphyrin Compounds Against α-Amylase and α-Glucosidase Linked to Diabetes” (Biomolecules, 2025)
